In test [1] the target is D(3) dopamine receptor (Rattus norvegicus, UniProt P19020). Put plainly: Displacement of [3H]spiperone from rat cloned dopamine D3 receptor expressed in HEK-293 cells by competition binding assay. Format: cell-based, HEK293.
In test [2] the target is D(2) dopamine receptor (Rattus norvegicus, UniProt P61169). Put plainly: Displacement of [3H]spiperone from rat cloned dopamine D2L receptor expressed in HEK-293 cells by competition binding assay. Type of test: cell-based, HEK293.
D(2) dopamine receptor, sequence (P61169 whole entry): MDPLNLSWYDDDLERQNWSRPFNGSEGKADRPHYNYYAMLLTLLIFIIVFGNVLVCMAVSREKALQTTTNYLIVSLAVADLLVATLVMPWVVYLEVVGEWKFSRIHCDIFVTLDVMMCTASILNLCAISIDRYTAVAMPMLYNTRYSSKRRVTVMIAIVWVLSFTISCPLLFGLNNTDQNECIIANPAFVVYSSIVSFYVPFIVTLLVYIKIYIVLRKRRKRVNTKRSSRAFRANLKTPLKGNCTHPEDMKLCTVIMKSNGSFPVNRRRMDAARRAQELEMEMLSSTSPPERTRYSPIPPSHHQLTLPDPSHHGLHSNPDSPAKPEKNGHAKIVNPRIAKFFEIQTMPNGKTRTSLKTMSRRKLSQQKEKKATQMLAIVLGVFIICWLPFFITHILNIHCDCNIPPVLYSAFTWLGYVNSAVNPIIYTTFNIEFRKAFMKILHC
The species named for test [3] is Rattus norvegicus. Put plainly: Selectivity ratio of Ki for rat cloned dopamine D2L receptor to Ki for rat cloned dopamine D3 receptor.

Structures are written as SMILES.

By Ki is commonly meant the equilibrium dissociation constant of an inhibitor or competing ligand from its target. Higher therefore signals a looser hold on the target.

D(3) dopamine receptor, sequence (P19020 whole entry): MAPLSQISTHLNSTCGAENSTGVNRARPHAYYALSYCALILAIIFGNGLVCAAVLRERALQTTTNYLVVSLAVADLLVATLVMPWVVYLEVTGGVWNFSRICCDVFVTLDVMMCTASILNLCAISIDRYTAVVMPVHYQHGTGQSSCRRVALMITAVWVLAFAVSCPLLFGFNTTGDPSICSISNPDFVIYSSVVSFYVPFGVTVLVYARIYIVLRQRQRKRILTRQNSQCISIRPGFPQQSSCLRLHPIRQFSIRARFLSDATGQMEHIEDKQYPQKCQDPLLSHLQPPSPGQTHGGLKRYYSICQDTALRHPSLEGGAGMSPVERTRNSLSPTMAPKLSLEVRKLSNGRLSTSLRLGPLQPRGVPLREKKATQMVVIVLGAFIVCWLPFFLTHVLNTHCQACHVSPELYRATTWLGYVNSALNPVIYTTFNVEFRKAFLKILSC

As for `CCCN(CCCCCCCCCCCCN(CCC)[C@H]1CCc2c(O)cccc2C1)[C@H]1CCc2c(O)cccc2C1`, the Ki in test [1] was determined as 10 nM; in test [2] it was 11 nM. Also, the Ratio Ki in test [3] came out at 1.

In the case of `CCCN(CCCCCCCN(CCC)[C@H]1CCc2c(O)cccc2C1)[C@H]1CCc2c(O)cccc2C1`, the Ki came out at 1.1 nM in test [1] and 3.9 nM in test [2]. Further, the Ratio Ki in test [3] was determined as 3.6.

`CCCN(CCCCCN(CCC)[C@H]1CCc2c(O)cccc2C1)[C@H]1CCc2c(O)cccc2C1`: the values for the Ki in test [1] and in test [2] were 3.6 nM and 75 nM, respectively. Besides, the Ratio Ki in test [3] came out at 21.

For `CCCN(CCCCCCCCCc1ccccc1)[C@H]1CCc2c(O)cccc2C1`, the Ki turned out to be 23 nM in test [1] and 140 nM in test [2]. Besides, the Ratio Ki in test [3] came out at 6.1.

`CCCN(CCN(CCC)[C@H]1CCc2c(O)cccc2C1)[C@H]1CCc2c(O)cccc2C1`: the Ki in test [1] stood at 1.1 nM; in test [2], 16 nM. Moreover, the Ratio Ki in test [3] worked out at 14.

With `CCCN(CCCCCCN(CCC)[C@H]1CCc2c(O)cccc2C1)[C@H]1CCc2c(O)cccc2C1`, the Ki in test [1] amounted to 2.2 nM; in test [2] it was 5.9 nM. Also, the Ratio Ki in test [3] was found to be 2.7.

For `CCCN(CCCCCCCCCCCCCCN(CCC)[C@H]1CCc2c(O)cccc2C1)[C@H]1CCc2c(O)cccc2C1`, the results for the Ki in test [1] and in test [2] were 31 nM and 55 nM, respectively. The Ratio Ki in test [3] was 1.7.

As for `CCCCCCCCCN(CCC)[C@H]1CCc2c(O)cccc2C1`, the values for the Ki in test [1] and in test [2] were 7.3 nM and 69 nM, respectively. Also, the Ratio Ki in test [3] is 9.4.

With `CCCN(CCCCN(CCC)[C@H]1CCc2c(O)cccc2C1)[C@H]1CCc2c(O)cccc2C1`, the Ki was 4 nM in test [1] and 70 nM in test [2]. Also, in test [3], the Ratio Ki is 17.

The values are drawn from ChEMBL document CHEMBL2203042, “Novel bivalent ligands for D2/D3 dopamine receptors: Significant co-operative gain in D2 affinity and potency” (ACS Med Chem Lett, 2012).
